Data set [1] is described as follows: Solubility of compound A under crystallization conditions with varying amounts of TsOH.H2O (Test Example 1). It is filed as physicochemical. The following applies: ethanol having a water content of 10%, 10° C. Here is the method: The ordinate depicts the solubility (mg/ml) of compound A, and the abscissa depicts the molar equivalent of p-toluenesulfonic acid monohydrate (vs. compound B).
The solubility of compound A was determined using varying amounts of TsOH.H2O under conditions for crystallizing compound A (ethanol having a water content of 10%, 10° C.). Specifically, compound A, compound B, and TsOH.H2O were added in the combinations shown below to 10 ml of ethanol having a water content of 10%. The resulting slurry was stirred at 10° C., and crystals were collected by filtration. Then, the content of the compound A contained in the filtered mother liquor was measured by HPLC (column: Shiseido CAPCELL PAK CN UG120 (4.6×250 mm), column temperature: 40° C., flow rate: 1.0 ml/min., mobile phase: acetonitrile:0.02 M phosphate buffer (pH 7.0)=30:70).

The nature of data set [2]: Stability of compound B under dissolution conditions with varying amounts of TsOH.H2O (Test Example 2). The conditions noted are these: ethanol having a water content of 30%, 70° C. It is filed as physicochemical. Here is the method: FIG. 2 depicts time-dependent (hr; abscissa) change in the amount of compound B (%; ordinate) with the initial (0 hr) amount of compound B defined as 100%.
The stability of compound B was determined using varying amounts of TsOH.H2O under conditions for dissolving compound B in a solvent (ethanol having a water content of 30%, 70° C.). Specifically, 7 ml of ethanol having a water content of 30% and TsOH.H2O were added in combinations shown below to 1.0 g of compound B, followed by dissolution at 70° C. The content of the compound B was measured at constant time intervals by HPLC (column: Shiseido CAPCELL PAK CN UG120 (4.6×250 mm), column temperature: 40° C., flow rate: 1.0 ml/min., mobile phase: acetonitrile:0.02 M phosphate buffer (pH 7.0)=30:70).

Take `CN1CCc2nc(C(=O)N[C@@H]3C[C@@H](C(=O)N(C)C)CC[C@@H]3NC(=O)C(=O)Nc3ccc(Cl)cn3)sc2C1.Cc1ccc(S(=O)(=O)O)cc1.O` [compound A, N^1-(5-chloropyridin-2-yl)-N^2-((1S,2R,4S)-4-[(dimethylamino)carbonyl]-2-{[(5-methyl-4,5,6,7-tetrahydrothiazolo[5,4-c]pyridin-2-yl)carbonyl]amino}cyclohexyl)ethanediamide p-toluenesulfonic acid monohydrate]: the “solubility of compound A” value in data set [1] (TsOH.H2O larger than 1.00 molar equivalent with respect to compound B) was “reduced”; in data set [1] (TsOH.H2O smaller than 1.00 molar equivalent with respect to compound B) it was “increased”.

`CN1CCc2nc(C(=O)N[C@@H]3C[C@@H](C(=O)N(C)C)CC[C@@H]3NC(=O)C(=O)Nc3ccc(Cl)cn3)sc2C1` [compound B, N^1-(5-chloropyridin-2-yl)-N^2-((1S,2R,4S)-4-[(dimethylamino)carbonyl]-2-{[(5-methyl-4,5,6,7-tetrahydrothiazolo[5,4-c]pyridin-2-yl)carbonyl]amino}cyclohexyl)ethanediamide]: the “decomposition of compound B (decrease in compound B content)” value in data set [2] (TsOH.H2O at less than 1.0 molar equivalent (vs. compound B)) is given as “suppressed”; in data set [2] (TsOH.H2O at more than 1.0 molar equivalent (vs. compound B)) it was “promoted with the excess”.

These data come from patent US8404847B2, “Method for producing diamine derivative” (Daiichi Sankyo Company, Limited, priority 2008, dated 2013).
